For this assay, the system named is cells derived from either Ku70 or Ku80 knock-out mice. The assay can be described thus: Survival experiments with Ku-deficient cells exposed to chemotherapeutic agents. The following applies: FIG. 12. The assay is classed as cell-based, mouse.

On to `COc1cccc2c1C(=O)c1c(O)c3c(c(O)c1C2=O)C[C@@](O)(C(=O)CO)C[C@@H]3O[C@H]1C[C@H](N)[C@H](O)[C@H](C)O1` [adriamycin], for which the “sensitivity of Ku70 or Ku80 knock-out mouse cells to the agent (survival)” value is on record as “very sensitive”.

For bleomycin, the “sensitivity of Ku70 or Ku80 knock-out mouse cells to the agent (survival)” value is recorded as “very sensitive”.
